Laboratory results: patent US12252524B2, “GIP/GLP1 co-agonist compounds” (Eli Lilly and Company, priority 2018, dated 2025)
Numbered stars: 1 amine (or outer) side, 2 acyl side, 3 side chain; on linkers, the order of the positions; unused ones are H or OH. Square brackets hold non-standard residues; d marks the D form. Side chains are listed from the residue outwards. Peptide text beside a SMILES is read from it. * marks the point of attachment. C20 diacid = O=C(O)CCCCCCCCCCCCCCCCCCC(=O)*; C18 diacid = O=C(O)CCCCCCCCCCCCCCCCC(=O)*; γGlu = O=C(O)[C@H](CCC(=O)[*:2])N[*:1]; αMeL = CC(C)C[C@](C)(N)C(=O)O; AEEA = NCCOCCOCC(=O)O; Aib = CC(C)(N)C(=O)O

Key:
human Gcg receptor = biological target: T1, human Gcg receptor (Homo sapiens, UniProt P47871); experiment: [125I]-Glucagon binding (SPA), human Gcg receptor; conditions: read-out: hGLcgR Ki, nM (SEM, n)
T1 construct: expressed in transfected cells; crude membranes
T1 sequence (P47871 26-477): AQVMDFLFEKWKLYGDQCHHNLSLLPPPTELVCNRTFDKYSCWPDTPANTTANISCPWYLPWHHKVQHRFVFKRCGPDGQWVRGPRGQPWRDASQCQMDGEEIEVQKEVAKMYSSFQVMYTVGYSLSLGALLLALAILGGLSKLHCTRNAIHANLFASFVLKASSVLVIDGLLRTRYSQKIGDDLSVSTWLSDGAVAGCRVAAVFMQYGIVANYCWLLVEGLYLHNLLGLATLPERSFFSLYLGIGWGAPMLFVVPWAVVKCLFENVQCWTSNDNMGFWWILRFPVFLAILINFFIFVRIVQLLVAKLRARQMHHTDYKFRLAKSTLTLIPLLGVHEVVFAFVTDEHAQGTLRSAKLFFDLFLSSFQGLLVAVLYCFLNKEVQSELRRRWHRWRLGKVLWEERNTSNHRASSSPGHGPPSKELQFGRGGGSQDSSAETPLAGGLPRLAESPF
How it was run: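 Crude membranes from cells expressing the receptor, prepared by hypotonic lysis in 50 mM Tris HCl pH 7.5 with protease inhibitors, homogenization and differential centrifugation, were used in a WGA-bead SPA. Binding buffer: 25 mM HEPES pH 7.4, 2.5 mM CaCl2, 1 mM MgCl2, bacitracin, Tween-20.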

human GIP receptor = biological target: T2, human GIP receptor (Homo sapiens, UniProt P48546); experiment: [125I]-GIP binding (SPA), human GIP receptor; conditions: read-out: hGIPR Ki, nM (SEM, n)
T2 construct: expressed in transfected cells; crude membranes
T2 sequence (P48546 22-466): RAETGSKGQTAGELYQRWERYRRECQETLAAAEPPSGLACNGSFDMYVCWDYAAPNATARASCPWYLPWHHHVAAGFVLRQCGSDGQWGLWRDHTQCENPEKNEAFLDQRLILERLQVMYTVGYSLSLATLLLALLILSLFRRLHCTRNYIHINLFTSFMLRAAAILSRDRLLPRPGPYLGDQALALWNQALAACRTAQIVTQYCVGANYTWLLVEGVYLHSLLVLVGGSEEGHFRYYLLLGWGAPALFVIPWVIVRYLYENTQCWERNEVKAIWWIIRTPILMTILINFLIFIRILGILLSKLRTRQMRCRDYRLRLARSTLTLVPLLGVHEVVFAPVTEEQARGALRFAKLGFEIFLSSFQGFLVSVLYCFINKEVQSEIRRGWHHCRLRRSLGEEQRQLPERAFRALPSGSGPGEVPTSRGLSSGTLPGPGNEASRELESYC

[1] = biological target: human GLP-1 receptor (GLP-1R) (Homo sapiens, UniProt P43220); experiment: cAMP pharmacological functional assay in presence of casein, hGLP-1R; format: cell-based; conditions: HEK293 cells expressing hGLP-1R, 0.1% Casein, geometric mean; read-out: hGLP1R cAMP Rel EC50 nM (SEM, n)
Sequence of human GLP-1 receptor (GLP-1R) (P43220 24-463): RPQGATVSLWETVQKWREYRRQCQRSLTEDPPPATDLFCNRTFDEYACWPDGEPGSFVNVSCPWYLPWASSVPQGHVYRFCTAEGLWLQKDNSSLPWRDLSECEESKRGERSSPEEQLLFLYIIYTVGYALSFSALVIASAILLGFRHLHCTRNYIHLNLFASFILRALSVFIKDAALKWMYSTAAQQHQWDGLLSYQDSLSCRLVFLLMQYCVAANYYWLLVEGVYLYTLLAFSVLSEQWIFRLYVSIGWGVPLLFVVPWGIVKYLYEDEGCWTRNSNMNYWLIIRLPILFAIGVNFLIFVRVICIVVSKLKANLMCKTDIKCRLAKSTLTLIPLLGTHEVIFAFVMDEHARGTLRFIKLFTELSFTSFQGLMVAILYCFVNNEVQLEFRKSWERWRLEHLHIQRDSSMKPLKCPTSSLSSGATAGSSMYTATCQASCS

[2] = biological target: T3, gastric inhibitory peptide receptor (GIPR) (Homo sapiens, UniProt P48546); experiment: cAMP pharmacological functional assay in presence of casein, hGIPR; format: cell-based; conditions: HEK293 cells expressing hGIPR, 0.1% Casein, geometric mean; read-out: hGIPR cAMP Rel EC50 nM (SEM, n)
T3 sequence (P48546 22-466): T2 sequence (P48546 22-466)

human GLP-1R [3] = biological target: T4, human GLP-1R (Homo sapiens, UniProt P43220); experiment: [125I]-GLP-1 binding (SPA), human GLP-1 receptor; set-up: expressed in transfected cells; crude membranes; conditions: read-out: hGLP1R Ki, (nM) (SEM, n)
T4 sequence (P43220 24-463): as above
How it was run: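 Assay buffer: HEPES 25 mM, pH 7.4, CaCl2 2.5 mM, MgCl2 1 mM, with EDTA-free protease inhibitors. Receptor came from crude cell membranes prepared by homogenization and centrifugation at 4° C. IC50s came from four-parameter fits (maximum, minimum, IC50, Hill slope) and were expressed as Ki geometric means with SEM.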

human GLP-1R [4] = biological target: T4, human GLP-1R; experiment: GLP-1R HEK293 cell membrane [35S]GTPγS binding assay; format: biochemical; set-up: expressed in transfected cells; host or cells: HEK293 cells expressing human GLP-1R; membranes; conditions: HEK293 cell membranes expressing human GLP-1R, [35S]GTPγS binding; read-out: hGLP1R GTPgS Rel EC50 nM (SEM, n)
Protocol: The GLP-1 receptor is a G-protein coupled receptor that increases GTP-bound Gas upon ligand induced receptor activation. The potency of peptides to stimulate-GLP-1R induced activation of Gac is determined using preparations of purified membranes from HEK293 cells expressing the human GLP-1R. […] The test peptides are solubilized in DMSO and diluted in reaction buffer containing 5 μg of membrane in 20 mM HEPES pH 7.4, 50 mM NaCl, 5 mM MgCl2, 40 μg/ml saponin, 0.1% BSA, and […] ^35S-labeled GTPTS for 30 minutes at room temperature. Reactions are terminated by addition of 0.2% Nonidet β-40 detergent containing rabbit anti-Gas polyclonal antibody and 0.5 mg of anti-rabbit polyvinyltoluene beads. Mixtures are developed for 30 minutes, centrifuged at 80×g for 10 minutes, and counted for 1 minute/well using a MicroBeta TriLux instrument. Peptide concentration-response curves are fit to a four-parameter logistic model to calculate potency as an EC50.

| Structure (SMILES) | Ki (human Gcg receptor) [nM] | Ki (human GIP receptor) [nM] | EC50 [1] [nM] | EC50 [2] [nM] | Ki (human GLP-1R [3]) [nM] | EC50 (human GLP-1R [4]) [nM] |
| --- | --- | --- | --- | --- | --- | --- |
| CC[C@H](C)[C@H](NC(=O)[C@H](CC(C)C)NC(=O)[C@H](Cc1ccc(O)cc1)NC(=O)[C@H](CCC(=O)O)NC(=O)[C@@H](NC(=O)[C@H](Cc1ccccc1)NC(=O)[C@H](C)NC(=O)C(C)(C)NC(=O)[C@H](CCC(N)=O)NC(=O)[C@H](C)NC(=O)[C@H](CCCCNC(=O)COCCOCCNC(=O)COCCOCCNC(=O)CC[C@H](NC(=O)CCCCCCCCCCCCCCCCC(=O)O)C(=O)O)NC(=O)[C@H](CCC(=O)O)NC(=O)[C@H](CC(=O)O)NC(=O)[C@H](CC(C)C)NC(=O)[C@](C)(CC(C)C)NC(=O)[C@@H](NC(=O)[C@H](CO)NC(=O)[C@H](Cc1ccc(O)cc1)NC(=O)[C@H](CC(=O)O)NC(=O)[C@H](CO)NC(=O)[C@@H](NC(=O)[C@H](Cc1ccccc1)NC(=O)[C@@H](NC(=O)CNC(=O)[C@H](CCC(=O)O)NC(=O)C(C)(C)NC(=O)[C@@H](N)Cc1ccc(O)cc1)[C@@H](C)O)[C@@H](C)O)[C@@H](C)CC)[C@@H](C)CC)C(=O)N[C@@H](CCC(=O)O)C(=O)NCC(=O)NCC(=O)N1CCC[C@H]1C(=O)N[C@@H](CO)C(=O)N[C@@H](CO)C(=O)NCC(=O)N[C@@H](C)C(=O)N1CCC[C@H]1C(=O)N1CCC[C@H]1C(=O)N1CCC[C@H]1C(=O)N[C@@H](CO)C(N)=O [Example 323] (H-Y[Aib]EGTFTSDYSI[αMeL]LDEK([AEEA-AEEA-γGlu-C18 diacid])AQ[Aib]AFIEYLIEGGPSSGAPPPS-NH2) | 300 | 0.0516 | 0.0597 | 0.0251 | 1.65 | 0.79 |
| CC[C@H](C)[C@H](NC(=O)[C@H](CC(C)C)NC(=O)[C@H](Cc1ccc(O)cc1)NC(=O)[C@H](CCC(=O)O)NC(=O)[C@@H](NC(=O)[C@H](Cc1ccccc1)NC(=O)[C@H](C)NC(=O)C(C)(C)NC(=O)[C@H](CCC(N)=O)NC(=O)[C@H](C)NC(=O)[C@H](CCCCNC(=O)COCCOCCNC(=O)COCCOCCNC(=O)CC[C@H](NC(=O)CCCCCCCCCCCCCCCCCCC(=O)O)C(=O)O)NC(=O)[C@H](CCCCN)NC(=O)[C@H](CC(=O)O)NC(=O)[C@H](CC(C)C)NC(=O)[C@](C)(CC(C)C)NC(=O)[C@@H](NC(=O)[C@H](CO)NC(=O)[C@H](Cc1ccc(O)cc1)NC(=O)[C@H](CC(=O)O)NC(=O)[C@H](CO)NC(=O)[C@@H](NC(=O)[C@H](Cc1ccccc1)NC(=O)[C@@H](NC(=O)CNC(=O)[C@H](CCC(=O)O)NC(=O)C(C)(C)NC(=O)[C@@H](N)Cc1ccc(O)cc1)[C@@H](C)O)[C@@H](C)O)[C@@H](C)CC)[C@@H](C)CC)C(=O)N[C@@H](C)C(=O)NCC(=O)NCC(=O)N1CCC[C@H]1C(=O)N[C@@H](CO)C(=O)N[C@@H](CO)C(=O)NCC(=O)N[C@@H](C)C(=O)N1CCC[C@H]1C(=O)N1CCC[C@H]1C(=O)N1CCC[C@H]1C(=O)N[C@@H](CO)C(N)=O [Example 324] (H-Y[Aib]EGTFTSDYSI[αMeL]LDKK([AEEA-AEEA-γGlu-C20 diacid])AQ[Aib]AFIEYLIAGGPSSGAPPPS-NH2) | 449 | 0.0278 | 0.0926 | 0.0374 | 0.609 | 0.475 |
| CC[C@H](C)[C@H](NC(=O)[C@H](CC(C)C)NC(=O)[C@H](Cc1ccc(O)cc1)NC(=O)[C@H](CCC(=O)O)NC(=O)[C@@H](NC(=O)[C@H](Cc1ccccc1)NC(=O)[C@H](C)NC(=O)C(C)(C)NC(=O)[C@H](CCC(N)=O)NC(=O)[C@H](C)NC(=O)[C@H](CCCCNC(=O)COCCOCCNC(=O)COCCOCCNC(=O)CC[C@H](NC(=O)CCCCCCCCCCCCCCCCCCC(=O)O)C(=O)O)NC(=O)[C@H](CCCCN)NC(=O)[C@H](CC(=O)O)NC(=O)[C@H](CC(C)C)NC(=O)[C@H](CC(C)C)NC(=O)[C@@H](NC(=O)[C@H](CO)NC(=O)[C@H](Cc1ccc(O)cc1)NC(=O)[C@H](CC(=O)O)NC(=O)[C@H](CO)NC(=O)[C@@H](NC(=O)[C@](C)(Cc1ccccc1F)NC(=O)[C@@H](NC(=O)CNC(=O)[C@H](CCC(=O)O)NC(=O)C(C)(C)NC(=O)[C@@H](N)Cc1ccc(O)cc1)[C@@H](C)O)[C@@H](C)O)[C@@H](C)CC)[C@@H](C)CC)C(=O)N[C@@H](CCC(=O)O)C(=O)NCC(=O)NCC(=O)N1CCC[C@H]1C(=O)N[C@@H](CO)C(=O)N[C@@H](CO)C(=O)NCC(=O)N[C@@H](C)C(=O)N1CCC[C@H]1C(=O)N1CCC[C@H]1C(=O)N1CCC[C@H]1C(=O)N[C@@H](CO)C(N)=O [Example 325] | 13 | 0.0209 | 0.0586 | 0.0301 | 0.475 | 0.414 |
| CC[C@H](C)[C@H](NC(=O)[C@H](CC(C)C)NC(=O)[C@H](Cc1ccc(O)cc1)NC(=O)[C@H](CCC(=O)O)NC(=O)[C@@H](NC(=O)[C@H](Cc1ccccc1)NC(=O)[C@H](C)NC(=O)C(C)(C)NC(=O)[C@H](CCC(N)=O)NC(=O)[C@H](C)NC(=O)[C@H](CCCCNC(=O)COCCOCCNC(=O)COCCOCCNC(=O)CC[C@H](NC(=O)CCCCCCCCCCCCCCCCCCC(=O)O)C(=O)O)NC(=O)[C@H](CCCCN)NC(=O)[C@H](CC(=O)O)NC(=O)[C@H](CC(C)C)NC(=O)[C@H](CC(C)C)NC(=O)[C@@H](NC(=O)[C@H](CO)NC(=O)[C@H](Cc1ccc(O)cc1)NC(=O)[C@H](CC(=O)O)NC(=O)[C@H](CO)NC(=O)[C@@H](NC(=O)[C@H](Cc1ccccc1)NC(=O)[C@@H](NC(=O)CNC(=O)[C@H](CCC(=O)O)NC(=O)C(C)(C)NC(=O)[C@@H](N)Cc1ccccc1)[C@@H](C)O)[C@@H](C)O)[C@@H](C)CC)[C@@H](C)CC)C(=O)N[C@@H](CCC(=O)O)C(=O)NCC(=O)NCC(=O)N1CCC[C@H]1C(=O)N[C@@H](CO)C(=O)N[C@@H](CO)C(=O)NCC(=O)N[C@@H](C)C(=O)N1CCC[C@H]1C(=O)N1CCC[C@H]1C(=O)N1CCC[C@H]1C(=O)N[C@@H](CO)C(N)=O [Example 326] (H-F[Aib]EGTFTSDYSILLDKK([AEEA-AEEA-γGlu-C20 diacid])AQ[Aib]AFIEYLIEGGPSSGAPPPS-NH2) | 207 | 0.251 | 0.0369 | 0.0754 | 2.92 | 0.663 |
| CC[C@H](C)[C@H](NC(=O)[C@H](CC(C)C)NC(=O)[C@H](Cc1ccc(O)cc1)NC(=O)[C@H](CCC(=O)O)NC(=O)[C@@H](NC(=O)[C@H](Cc1ccccc1)NC(=O)[C@H](C)NC(=O)C(C)(C)NC(=O)[C@H](CCC(N)=O)NC(=O)[C@H](C)NC(=O)[C@H](CCCCNC(=O)COCCOCCNC(=O)COCCOCCNC(=O)CC[C@H](NC(=O)CCCCCCCCCCCCCCCCC(=O)O)C(=O)O)NC(=O)[C@H](CCCCN)NC(=O)[C@H](CC(=O)O)NC(=O)[C@H](CC(C)C)NC(=O)[C@](C)(CC(C)C)NC(=O)[C@@H](NC(=O)[C@H](CO)NC(=O)[C@H](Cc1ccc(O)cc1)NC(=O)[C@H](CC(=O)O)NC(=O)[C@H](CO)NC(=O)[C@@H](NC(=O)[C@H](Cc1ccccc1)NC(=O)[C@@H](NC(=O)CNC(=O)[C@H](CCC(=O)O)NC(=O)C(C)(C)NC(=O)[C@@H](N)Cc1ccccc1)[C@@H](C)O)[C@@H](C)O)[C@@H](C)CC)[C@@H](C)CC)C(=O)N[C@@H](CCC(=O)O)C(=O)N[C@@H](C)C(=O)NCC(=O)N1CCC[C@H]1C(=O)N[C@@H](CO)C(=O)N[C@@H](CO)C(=O)NCC(=O)N[C@@H](C)C(=O)N1CCC[C@H]1C(=O)N1CCC[C@H]1C(=O)N1CCC[C@H]1C(=O)N[C@@H](CO)C(N)=O [Example 328] (H-F[Aib]EGTFTSDYSI[αMeL]LDKK([AEEA-AEEA-γGlu-C18 diacid])AQ[Aib]AFIEYLIEAGPSSGAPPPS-NH2) | > 1450 | 0.136 | 0.117 | 0.0965 | 3.98 | 0.481 |
